Key:
Assay type in all cases: cell-based
Sppl2a CD74 = biological target: T1, Sppl2a CD74 (Mus musculus, UniProt Q9JJF9); test: CD74/p8 mouse whole blood assay, flow cytometry format; settings: Balb/c mouse whole blood, 5 h, CD74 signal on gated live B cells
T1 construct: Mouse whole blood Balb/c mice (sodium citrate) was ordered by Bioreclamation LLC; tissue Bioreclamation LLC
T1 sequence (Q9JJF9 26-523): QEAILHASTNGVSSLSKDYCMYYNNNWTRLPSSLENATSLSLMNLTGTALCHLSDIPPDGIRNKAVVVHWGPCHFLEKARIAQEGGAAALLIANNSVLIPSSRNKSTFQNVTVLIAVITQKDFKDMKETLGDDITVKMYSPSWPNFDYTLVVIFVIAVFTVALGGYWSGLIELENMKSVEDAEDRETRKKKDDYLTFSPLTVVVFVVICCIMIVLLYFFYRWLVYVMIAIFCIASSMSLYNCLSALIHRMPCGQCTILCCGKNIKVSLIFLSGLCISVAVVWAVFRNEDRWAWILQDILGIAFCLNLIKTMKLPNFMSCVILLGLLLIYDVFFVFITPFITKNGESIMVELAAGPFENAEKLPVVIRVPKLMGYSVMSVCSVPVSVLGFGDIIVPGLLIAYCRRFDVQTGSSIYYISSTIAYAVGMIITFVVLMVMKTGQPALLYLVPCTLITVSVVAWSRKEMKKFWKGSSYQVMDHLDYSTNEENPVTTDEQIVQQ
Method: CD74/p8 Mouse Whole Blood Assay: Flow Cytometry Format
Mouse whole blood Balb/c mice (sodium citrate) was ordered by Bioreclamation LLC; USA. The blood was used the next day upon receipt (stored at 4° C.). 100 μL blood were transferred in 96 well format plate, where compounds, an 11 point dilutions down from 30 μM, to be tested were previously deposited. The plate was incubated for 5 h in the incubator at 37° C., 5% CO2 under continuous motion. After the incubation the blood was diluted with RBC Lysis Buffer (Amined; Cat. Nr 3-13F00-H or BD; Cat. Nr 555899). The solution was mixed by pipetting and incubated 10 min in the 37° C. incubator. The white blood cells were sedimented for 3 min at 2000 rpm. After removing the supernatant the cell pellet was resuspended and washed twice in RCB Buffer and kept≈ 5 min at room temperature, followed by a centrifugation for 2 min at 2000 rpm. The cell pellet was then resuspend in D-PBS and centrifuged twice. Finally, the cells were taken up in of D-PBS/0.5% inactivated fetal bovine serum/2 mM EDTA. The cell suspension was treated with Live/Dead fixable stain (Life Technologies, >470 nm version), B cells were identified by surface staining with an anti-B220 antibody coupled to APC fluorofor. After staining, the cells were extensively washed with PBS. The cells were permeabilized and fixed in FACS lysing buffer; (BD; #349202, dil 1:10 in water) and labelled with an anti CD74, FITC labelled antibody, washed once more with diluted FACS lysing buffer and spin down. The cell pellet was washed with D-PBS/0.5% inactivated fetal bovine serum/2 mM EDTA and PBS prior to the analysis in a flow cytometer. The compound concentrations were plotted against the intensity (medium fluorescence intensity) of the CD74 signal on the gated life B cell and IC50 were determined by fitting data for a 11 concentrations dose response.

human SPPL2a [1] = biological target: T2, human SPPL2a (Homo sapiens, UniProt Q8TCT8); test: Sppl2a TL (translocation) imaging assay in U-2 OS cells; parameters: expressed in transfected cells; settings: U-2 OS cells expressing human SPPL2a and EGFP-TNFα(aa1-76) NTF substrate; 24 h
T2 sequence (Q8TCT8 26-520): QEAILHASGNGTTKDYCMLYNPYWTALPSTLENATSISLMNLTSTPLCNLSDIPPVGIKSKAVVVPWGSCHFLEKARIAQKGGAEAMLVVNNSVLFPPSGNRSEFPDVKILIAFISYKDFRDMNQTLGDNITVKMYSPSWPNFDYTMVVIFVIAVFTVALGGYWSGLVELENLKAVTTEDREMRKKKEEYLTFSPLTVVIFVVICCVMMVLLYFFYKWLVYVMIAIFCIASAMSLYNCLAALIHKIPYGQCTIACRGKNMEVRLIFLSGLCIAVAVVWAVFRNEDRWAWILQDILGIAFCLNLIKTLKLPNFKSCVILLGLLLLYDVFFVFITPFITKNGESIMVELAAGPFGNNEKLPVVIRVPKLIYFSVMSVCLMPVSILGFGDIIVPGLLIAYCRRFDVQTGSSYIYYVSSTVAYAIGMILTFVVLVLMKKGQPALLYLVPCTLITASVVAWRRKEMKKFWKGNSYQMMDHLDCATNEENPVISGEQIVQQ
Outline: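 U-2 OS cells stably expressing human SPPL2a plus doxycycline-induced EGFP-TNFα(aa1-76) NTF, treated 24 h at 37 °C with inhibitor (100 μM–1 nM, 11 points, 0.9% DMSO, 5 μg/mL doxycycline). Imaging of nuclear-minus-cytoplasmic EGFP intensity; % inhibition versus 0.5 μM LY-411,575 and DMSO, IC50 by nonlinear regression; CC50 from cell count.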

human SPPL2a [2] = biological target: T2, human SPPL2a; test: Sppl2a RGA (reporter gene assay) in HEK293 cells; parameters: expressed in transfected cells; host or cells: HEK293 (transient); settings: NT-TNF-VP16-Gal4 substrate, Gal4-luciferase reporter, 24 h
Outline: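 HEK293 cells transiently co-transfected with human SPPL2a, NT-TNF-VP16-Gal4 substrate and Gal4-luciferase reporter, compound added within 5 h. After 24 h at 37 °C, luciferase luminescence measured; IC50 from concentration versus normalized luminescence.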

Work on `CCOc1nc(C)c(C(=O)NC[C@@H](CC)C(=O)N[C@@H]2C(=O)N3CCCN3Cc3ccccc32)s1` [Example 53, 2-Ethoxy-4-methyl-N-((R)-2-(((S)-11-oxo-2,3,10,11-tetrahydro-1H,5H-benzo[d]pyrazolo [1,2-a][1,2]diazepin-10-yl)carbamoyl)butyl) thiazole-5-carboxamide] yielded an IC50 (Sppl2a CD74) of 279 nM, an IC50 (human SPPL2a [1]) of 125 nM and an IC50 (human SPPL2a [2]) of 22 nM.
In the case of `CCNC(=O)c1nc(C)c(C(=O)NC[C@H](C(=O)N[C@@H]2C(=O)N3CCCN3Cc3ccccc32)C(F)(F)F)s1` [Example 7, N^2-Ethyl-4-methyl-N^5-((R)-3,3,3-trifluoro-2-(((S)-11-oxo-2,3,10,11-tetrahydro-1H,5H-benzo[d]pyrazolo [1,2-a][1,2]diazepin-10-yl)carbamoyl)pro-pyl)thiazole-2,5-dicarboxamide], the IC50 (Sppl2a CD74) is reported as 120 nM, the IC50 (human SPPL2a [1]) is reported as 3 nM and the IC50 (human SPPL2a [2]) is reported as 2 nM.
`Cc1cc(-c2nc(C)c(C(=O)NC[C@@H](C)C(=O)N[C@@H]3C(=O)N4CCCN4Cc4ccccc43)s2)on1` [Example 23, 4-Methyl-N-((R)-2-methyl-3-oxo-3-(((S)-11-oxo-2,3,10,11-tetrahydro-1H,5H-benzo[d]pyrazolo [1,2-a][1,2]diazepin-10-yl)amino)propyl)-2-(3-methylisoxazol-5-yl)thiazole-5-carboxamide] was tested, and the IC50 (Sppl2a CD74) was 992 nM, the IC50 (human SPPL2a [1]) was 16 nM and the IC50 (human SPPL2a [2]) was 21 nM.
`C[C@H](CC(=O)Nc1cc(C(=O)NC2CC2)nn1C)C(=O)N[C@@H]1C(=O)N2CCCN2Cc2ccccc21` [Example 102, (R)-N^4-(3-(Cyclopropylcar-bamoyl)-1-methyl-1H-pyrazol-5-yl)-2-methyl-N^1-((S)-11-oxo-2,3,10,11-tetrahydro-1H,5H-benzo[d]pyrazolo [1,2-a][1,2]diazepin-10-yl)succinamide] showed an IC50 (Sppl2a CD74) of 1520 nM, an IC50 (human SPPL2a [1]) of 17 nM and an IC50 (human SPPL2a [2]) of 123 nM.
Compound `COCC[C@H](CNC(=O)c1sc(-c2cc(C)no2)nc1C)C(=O)N[C@@H]1C(=O)N2CCCN2Cc2ccccc21` [Example 42, N-((R)-4-Methoxy-2-(((S)-11-oxo-2,3,10,11-tetrahydro-1H,5H-benzo[d]pyrazolo [1,2-a][1,2]diazepin-10-yl)carbamoyl)butyl)-4-methyl-2-(3-methylisoxazol-5-yl)thiazole-5-carboxamide] has an IC50 (Sppl2a CD74) of 847 nM, an IC50 (human SPPL2a [1]) of 62 nM and an IC50 (human SPPL2a [2]) of 27 nM.
`Cc1cc(-c2cc(NC(=O)C[C@@H](C)C(=O)N[C@@H]3C(=O)N4CCCN4Cc4ccccc43)n(C)n2)on1` [Example 90, (R)-2-Methyl-N^4. (1-methyl-3-(3-methylisoxazol-5-yl)-1H-pyrazol-5-yl)-N^1-((S)-11-oxo-2,3,10,11-tetrahydro-1H,5H-benzo[d]pyrazolo [1,2-a][1,2]diazepin-10-yl)succinamide] was tested, and the IC50 (Sppl2a CD74) was 635 nM, the IC50 (human SPPL2a [1]) was 11 nM and the IC50 (human SPPL2a [2]) was 11 nM.
`CC(C)C(=O)Nc1cc(NC(=O)C[C@@H](C)C(=O)N[C@@H]2C(=O)N3CCCN3Cc3ccccc32)n(C)n1` [Example 62, (R)—N^4-(3-Isobutyramido-1-methyl-1H-pyrazol-5-yl)-2-methyl-N^1—((S)-11-oxo-2,3,10,11-tetrahydro-1H,5H-benzo[d]pyrazolo[1,2-a][1,2]diazepin-10-yl)succinamide] gave an IC50 (Sppl2a CD74) of 317 nM, an IC50 (human SPPL2a [1]) of 0.3 nM and an IC50 (human SPPL2a [2]) of 57 nM.
For `C[C@H](CNC(=O)c1sc(C2CC2)nc1Cl)C(=O)N[C@@H]1C(=O)N2CCCN2Cc2ccccc21` [Example 43, 4-Chloro-2-cyclopropyl-N-((R)-2-methyl-3-oxo-3-(((S)-11-oxo-2,3,10,11-tetrahydro-1H,5H-benzo[d]pyrazolo [1,2-a][1,2]diazepin-10-yl)amino)propyl) thiazole-5-carboxamide], the IC50 (Sppl2a CD74) was 1740 nM, the IC50 (human SPPL2a [1]) was 63 nM and the IC50 (human SPPL2a [2]) was 104 nM.
Work on `COCCn1cc(-c2nc(Cl)c(NC(=O)C[C@@H](C)C(=O)N[C@@H]3C(=O)N4CCCN4Cc4ccccc43)s2)cn1` [Example 99, (R)-N^4-(4-Chloro-2-(1-(2-methoxyethyl)-1H-pyrazol-4-yl)thiazol-5-yl)-2-methyl-N^1-((S)-11-oxo-2,3,10,11-tetrahydro-1H,5H-benzo[d]pyrazolo [1,2-a][1,2]diazepin-10-yl)succinamide] yielded an IC50 (Sppl2a CD74) of 892 nM, an IC50 (human SPPL2a [1]) of 14 nM and an IC50 (human SPPL2a [2]) of 50 nM.
`CCNC(=O)c1nc(C)c(C(=O)NC[C@@H](C)C(=O)N[C@@H]2C(=O)N3CCCN3Cc3ccccc32)s1` [Example 16, N^2-Ethyl-4-methyl-N^5-((R)-2-methyl-3-oxo-3-(((S)-11-oxo-2,3,10,11-tetrahydro-1H,5H-benzo[d]pyrazolo [1,2-a][1,2]diazepin-10-yl)amino)propyl) thiazole-2,5-dicarboxamide] was tested, and the IC50 (Sppl2a CD74) was 659 nM, the IC50 (human SPPL2a [1]) was 11 nM and the IC50 (human SPPL2a [2]) was 8 nM.
With `Cc1nc(C(=O)NCC(F)F)sc1C(=O)NC[C@H](C(=O)N[C@@H]1C(=O)N2CCCN2Cc2ccccc21)C(F)(F)F` [Example 5, N^2-(2,2-Difluoroethyl)-4-methyl-N^5-((R)-3,3,3-trifluoro-2-(((S)-11-oxo-2,3,10,11-tetrahydro-1H,5H-benzo[d]pyrazolo [1,2-a][1,2]diazepin-10-yl)carbamoyl)pro-pyl)thiazole-2,5-dicarboxamide] the IC50 (Sppl2a CD74) was 225 nM, the IC50 (human SPPL2a [1]) was 2 nM and the IC50 (human SPPL2a [2]) was 2 nM.
In the case of `CC(C)C(=O)Nc1cc(NC(=O)C[C@H](C(=O)N[C@@H]2C(=O)N3CCCN3Cc3ccccc32)C2CCC2)n(C)n1` [Example 63, (S)-2-Cyclobutyl-N^4-(3-isobutyramido-1-methyl-1H-pyrazol-5-yl)-N^1-((S)-11-oxo-2,3,10,11-tetrahydro-1H,5H-benzo[d]pyrazolo [1,2-a][1,2]diazepin-10-yl)succinamide], the IC50 (Sppl2a CD74) is reported as 343 nM, the IC50 (human SPPL2a [1]) is reported as 0.6 nM and the IC50 (human SPPL2a [2]) is reported as 11 nM.
Work on `Cc1nc(NC(=O)C(C)C)sc1C(=O)NC[C@H](C(=O)N[C@@H]1C(=O)N2CCCN2Cc2ccccc21)C(F)(F)F` [Example 3, 2-Isobutyramido-4-methyl-N-((R)-3,3,3-trifluoro-2-(((S)-11-oxo-2,3,10,11-tetrahydro-1H,5H-benzo[d]pyrazolo [1,2-a][1,2]diazepin-10-yl)carbamoyl)pro-pyl)thiazole-5-carboxamide] yielded an IC50 (Sppl2a CD74) of 100 nM, an IC50 (human SPPL2a [1]) of 0.5 nM and an IC50 (human SPPL2a [2]) of 3 nM.
In the case of `Cn1nc(-c2cc(C3CC3)no2)cc1NC(=O)C[C@H](C(=O)N[C@@H]1C(=O)N2CC3(CC3)CN2C(=O)c2ccccc21)C1CC1` [Example 103, (S)-2-Cyclopropyl-N^4-(3-(3-cyclopropylisoxa-zol-5-yl)-1-methyl-1H-pyrazol-5-yl)-N^1-((S)-5,11-dioxo-10,11-dihydro-1H,3H,5H-spiro[benzo[d]pyr-azolo[1,2-a][1,2]diazepine-2,1″- cyclopropan]-10-yl)succinamide], the IC50 (Sppl2a CD74) is reported as 1250 nM, the IC50 (human SPPL2a [1]) is reported as 17 nM and the IC50 (human SPPL2a [2]) is reported as 13 nM.
